Results on 1 compound are retold here after ChEMBL document CHEMBL1145540, “Zidovudine inhibits thymidine phosphorylation in the isolated perfused rat heart” (Antimicrob Agents Chemother, 2007).

This assay deals with Heart. In words: Inhibition of [3H]thymidine phosphorylation in isolated perfused Sprague-Dawley rat heart after 30 mins. Format: functional, tissue-based.

As to `Cc1cn([C@H]2C[C@H](N=[N+]=[N-])[C@@H](CO)O2)c(=O)[nH]c1=O` [ZIDOVUDINE], the IC50 turned out to be 24.4 µM.

By IC50 is commonly meant the concentration that gives 50% inhibition. The low end stands for greater potency in that assay, the high end for weaker potency in that assay.
